ChEMBL document CHEMBL1139602, “Biological evaluation of Tyr6 and Ser7 modified drosocin analogues” (2005)
≈ marks a conversion by molar mass, not a printed value. Square brackets hold non-standard residues; d marks the D form. Peptide text beside a SMILES is read from it. Ava = NCCCCC(=O)O; GABA = NCCCC(=O)O; βAla = NCCC(=O)O

Assays:
[1] = test system: Cell line; test: Percent of intact peptide after 8 hr of digestion in 25% human serum; format: functional
[2] = test system: Escherichia coli; test: Minimum inhibitory concentration against Escherichia coli ATCC 11775 strain; format: functional

Compound	Intact [1] [%]	MIC [2] [µM]
H-GKPRPYSPRPTSHPRPIRV-OH [DROSOCIN]	3	6.3
CC[C@H](C)[C@H](NC(=O)[C@@H]1CCCN1C(=O)[C@H](CCCN=C(N)N)NC(=O)[C@@H]1CCCN1C(=O)[C@H](Cc1c[nH]cn1)NC(=O)[C@H](CO)NC(=O)[C@@H](NC(=O)[C@@H]1CCCN1C(=O)[C@H](CCCN=C(N)N)NC(=O)[C@@H]1CCCN1C(=O)[C@@H](CO)NC(=O)[C@H](Cc1ccc(O)cc1)NC(=O)[C@@H]1CCCN1C(=O)[C@H](CCCN=C(N)N)NC(=O)[C@@H]1CCCN1C(=O)[C@H](CCCCN)NC(=O)CN)[C@@H](C)O)C(=O)N[C@@H](CCCN=C(N)N)C(=O)N[C@H](C=O)C(C)C	1	3.1 (≈ 6.77 µg/mL)
CC[C@H](C)[C@H](NC(=O)[C@@H]1CCCN1C(=O)[C@H](CCCN=C(N)N)NC(=O)[C@@H]1CCCN1C(=O)[C@H](Cc1c[nH]cn1)NC(=O)[C@H](CO)NC(=O)[C@@H](NC(=O)[C@@H]1CCCN1C(=O)[C@H](CCCN=C(N)N)NC(=O)[C@@H]1CCCN1C(=O)[C@@H](NC(=O)[C@H](Cc1ccc(O)cc1)NC(=O)[C@@H]1CCCN1C(=O)[C@H](CCCN=C(N)N)NC(=O)[C@@H]1CCCN1C(=O)[C@H](CCCCN)NC(=O)CN)[C@@H](C)O)[C@@H](C)O)C(=O)N[C@@H](CCCN=C(N)N)C(=O)N[C@H](C=O)C(C)C (H-GKPRPYTPRPTSHPRPIRV-aldehyde)	15	1.6 (≈ 3.51 µg/mL)
CC[C@H](C)[C@H](NC(=O)[C@@H]1CCCN1C(=O)[C@H](CCCN=C(N)N)NC(=O)[C@@H]1CCCN1C(=O)[C@H](Cc1c[nH]cn1)NC(=O)[C@H](CO)NC(=O)[C@@H](NC(=O)[C@@H]1CCCN1C(=O)[C@H](CCCN=C(N)N)NC(=O)[C@@H]1CCCN1C(=O)[C@H](COC)NC(=O)[C@H](Cc1ccc(O)cc1)NC(=O)[C@@H]1CCCN1C(=O)[C@H](CCCN=C(N)N)NC(=O)[C@@H]1CCCN1C(=O)[C@H](CCCCN)NC(=O)CN)[C@@H](C)O)C(=O)N[C@@H](CCCN=C(N)N)C(=O)N[C@H](C=O)C(C)C (H-GKPRPYS(Me)PRPTSHPRPIRV-aldehyde)	11	25 (≈ 54.9 µg/mL)
CC[C@H](C)[C@H](NC(=O)[C@@H]1CCCN1C(=O)[C@H](CCCN=C(N)N)NC(=O)[C@@H]1CCCN1C(=O)[C@H](Cc1c[nH]cn1)NC(=O)[C@H](CO)NC(=O)[C@@H](NC(=O)[C@@H]1CCCN1C(=O)[C@H](CCCN=C(N)N)NC(=O)[C@@H]1CCCN1C(=O)[C@H](CO)NC(=O)C[C@@H](Cc1ccc(O)cc1)NC(=O)[C@@H]1CCCN1C(=O)[C@H](CCCN=C(N)N)NC(=O)[C@@H]1CCCN1C(=O)[C@H](CCCCN)NC(=O)CN)[C@@H](C)O)C(=O)N[C@@H](CCCN=C(N)N)C(=O)N[C@H](C=O)C(C)C	2	3.1 (≈ 6.81 µg/mL)
CC[C@H](C)[C@H](NC(=O)[C@@H]1CCCN1C(=O)[C@H](CCCN=C(N)N)NC(=O)[C@@H]1CCCN1C(=O)[C@H](Cc1c[nH]cn1)NC(=O)[C@H](CO)NC(=O)[C@@H](NC(=O)[C@@H]1CCCN1C(=O)[C@H](CCCN=C(N)N)NC(=O)[C@@H]1CCCN1C(=O)C[C@@H](CO)NC(=O)[C@H](Cc1ccc(O)cc1)NC(=O)[C@@H]1CCCN1C(=O)[C@H](CCCN=C(N)N)NC(=O)[C@@H]1CCCN1C(=O)[C@H](CCCCN)NC(=O)CN)[C@@H](C)O)C(=O)N[C@@H](CCCN=C(N)N)C(=O)N[C@H](C=O)C(C)C	31	3.1 (≈ 6.81 µg/mL)
CC[C@H](C)[C@H](NC(=O)[C@@H]1CCCN1C(=O)[C@H](CCCN=C(N)N)NC(=O)[C@@H]1CCCN1C(=O)[C@H](Cc1c[nH]cn1)NC(=O)[C@H](CO)NC(=O)[C@@H](NC(=O)[C@@H]1CCCN1C(=O)[C@H](CCCN=C(N)N)NC(=O)[C@@H]1CCCN1C(=O)[C@@H](NC(=O)[C@H](Cc1ccccc1)NC(=O)[C@@H]1CCCN1C(=O)[C@H](CCCN=C(N)N)NC(=O)[C@@H]1CCCN1C(=O)[C@H](CCCCN)NC(=O)CN)[C@@H](C)O)[C@@H](C)O)C(=O)N[C@@H](CCCN=C(N)N)C(=O)N[C@H](C=O)C(C)C (H-GKPRPFTPRPTSHPRPIRV-aldehyde)	26	3.1 (≈ 6.76 µg/mL)
CC[C@H](C)[C@H](NC(=O)[C@@H]1CCCN1C(=O)[C@H](CCCN=C(N)N)NC(=O)[C@@H]1CCCN1C(=O)[C@H](Cc1c[nH]cn1)NC(=O)[C@H](CO)NC(=O)[C@@H](NC(=O)[C@@H]1CCCN1C(=O)[C@H](CCCN=C(N)N)NC(=O)[C@@H]1CCCN1C(=O)[C@@H](NC(=O)[C@H](Cc1ccc(O)cc1)NC(=O)[C@@H]1CCCN1C(=O)[C@H](CCCN=C(N)N)NC(=O)[C@@H]1CCCN1C(=O)[C@H](CCCCN)NC(=O)CCCCN)[C@@H](C)O)[C@@H](C)O)C(=O)N[C@@H](CCCN=C(N)N)C(=O)N[C@H](C(=O)O)C(C)C (H-[Ava]KPRPYTPRPTSHPRPIRV-OH)	84	6.3 (≈ 14.2 µg/mL)
CC[C@H](C)[C@H](NC(=O)[C@@H]1CCCN1C(=O)[C@H](CCCN=C(N)N)NC(=O)[C@@H]1CCCN1C(=O)[C@H](Cc1c[nH]cn1)NC(=O)[C@H](CO)NC(=O)[C@@H](NC(=O)[C@@H]1CCCN1C(=O)[C@H](CCCN=C(N)N)NC(=O)[C@@H]1CCCN1C(=O)[C@@H](NC(=O)[C@H](Cc1ccc(O)cc1)NC(=O)[C@@H]1CCCN1C(=O)[C@H](CCCN=C(N)N)NC(=O)[C@@H]1CCCN1C(=O)[C@H](CCCCN)NC(=O)CCN)[C@@H](C)O)[C@@H](C)O)C(=O)N[C@@H](CCCN=C(N)N)C(=O)N[C@H](C(=O)O)C(C)C (H-[βAla]KPRPYTPRPTSHPRPIRV-OH)	87	3.1 (≈ 6.9 µg/mL)
CC[C@H](C)[C@H](NC(=O)CNC(=O)[C@H](Cc1ccc(O)cc1)NC(=O)[C@H](CC(=O)O)NC(=O)[C@@H](NC(=O)[C@H](CO)NC(=O)CNC(=O)[C@H](CC(=O)O)NC(=O)[C@@H](NC(=O)[C@@H](N)CC(N)=O)[C@@H](C)O)[C@@H](C)O)C(=O)N[C@@H](CC(C)C)C(=O)N[C@@H](CCC(N)=O)C(=O)N[C@H](C(=O)N[C@@H](CC(N)=O)C(=O)N[C@@H](CO)C(=O)N[C@H](C=O)CCCN=C(N)N)[C@@H](C)CC	–	> 100
CC[C@H](C)[C@H](NC(=O)[C@@H]1CCCN1C(=O)[C@H](CCCN=C(N)N)NC(=O)[C@@H]1CCCN1C(=O)[C@H](Cc1c[nH]cn1)NC(=O)[C@H](CO)NC(=O)[C@@H](NC(=O)[C@@H]1CCCN1C(=O)[C@H](CCCN=C(N)N)NC(=O)[C@@H]1CCCN1C(=O)[C@@H](CO)NC(=O)[C@@H](Cc1ccc(O)cc1)NC(=O)[C@@H]1CCCN1C(=O)[C@H](CCCN=C(N)N)NC(=O)[C@@H]1CCCN1C(=O)[C@H](CCCCN)NC(=O)CN)[C@@H](C)O)C(=O)N[C@@H](CCCN=C(N)N)C(=O)N[C@H](C=O)C(C)C	17	25 (≈ 54.6 µg/mL)
CC[C@H](C)[C@H](NC(=O)[C@@H]1CCCN1C(=O)[C@H](CCCN=C(N)N)NC(=O)[C@@H]1CCCN1C(=O)[C@H](Cc1c[nH]cn1)NC(=O)[C@H](CO)NC(=O)[C@@H](NC(=O)[C@@H]1CCCN1C(=O)[C@H](CCCN=C(N)N)NC(=O)[C@@H]1CCCN1C(=O)[C@@H](NC(=O)[C@H](Cc1ccc(O)cc1)NC(=O)[C@@H]1CCCN1C(=O)[C@H](CCCN=C(N)N)NC(=O)[C@@H]1CCCN1C(=O)[C@H](CCCCN)NC(=O)CCCN)C(C)C)[C@@H](C)O)C(=O)N[C@@H](CCCN=C(N)N)C(=O)N[C@H](C=O)C(C)C (H-[GABA]KPRPYVPRPTSHPRPIRV-aldehyde)	76	6.3 (≈ 14 µg/mL)
CC[C@H](C)[C@H](NC(=O)[C@@H]1CCCN1C(=O)[C@H](CCCN=C(N)N)NC(=O)[C@@H]1CCCN1C(=O)[C@H](Cc1c[nH]cn1)NC(=O)[C@H](CO)NC(=O)[C@@H](NC(=O)[C@@H]1CCCN1C(=O)[C@H](CCCN=C(N)N)NC(=O)[C@@H]1CCCN1C(=O)[C@H](CO)NC(=O)[C@H](Cc1ccccc1)NC(=O)[C@@H]1CCCN1C(=O)[C@H](CCCN=C(N)N)NC(=O)[C@@H]1CCCN1C(=O)[C@H](CCCCN)NC(=O)CN)[C@@H](C)O)C(=O)N[C@@H](CCCN=C(N)N)C(=O)N[C@H](C=O)C(C)C (H-GKPRPFSPRPTSHPRPIRV-aldehyde)	19	3.1 (≈ 6.72 µg/mL)
CC[C@H](C)[C@H](NC(=O)[C@@H]1CCCN1C(=O)[C@H](CCCN=C(N)N)NC(=O)[C@@H]1CCCN1C(=O)[C@H](Cc1c[nH]cn1)NC(=O)[C@H](CO)NC(=O)[C@@H](NC(=O)[C@@H]1CCCN1C(=O)[C@H](CCCN=C(N)N)NC(=O)[C@@H]1CCCN1C(=O)[C@@H](NC(=O)[C@H](Cc1ccc(O)cc1)NC(=O)[C@@H]1CCCN1C(=O)[C@H](CCCN=C(N)N)NC(=O)[C@@H]1CCCN1C(=O)[C@H](CCCCN)NC(=O)CN)C(C)C)[C@@H](C)O)C(=O)N[C@@H](CCCN=C(N)N)C(=O)N[C@H](C=O)C(C)C (H-GKPRPYVPRPTSHPRPIRV-aldehyde)	–	12.5 (≈ 27.4 µg/mL)
CC[C@H](C)[C@H](NC(=O)[C@@H]1CCCN1C(=O)[C@H](CCCN=C(N)N)NC(=O)[C@@H]1CCCN1C(=O)[C@H](Cc1c[nH]cn1)NC(=O)[C@H](CO)NC(=O)[C@@H](NC(=O)[C@@H]1CCCN1C(=O)[C@H](CCCN=C(N)N)NC(=O)[C@@H]1CCCN1C(=O)[C@H](CO)NC(=O)[C@@H](Cc1ccc(O)cc1)NC(=O)[C@@H]1CCCN1C(=O)[C@H](CCCN=C(N)N)NC(=O)[C@@H]1CCCN1C(=O)[C@H](CCCCN)NC(=O)CN)[C@@H](C)O)C(=O)N[C@@H](CCCN=C(N)N)C(=O)N[C@H](C=O)C(C)C	16	6.3 (≈ 13.8 µg/mL)
